Data taken from publication PMC12165799, “Antimicrobial peptide developed with machine learning sequence optimization targets drug resistant Staphylococcus aureus in mice” (The Journal of Clinical Investigation, 2025).

How the values were obtained:
[1] = tested on: S. aureus MW2 established biofilm; experiment: Fluorescence microscopy of established biofilms, live/dead staining; assay type: cell-based, Staphylococcus aureus; details: 32 μg/mL, SYTO9 / propidium iodide
Description: 369 aureus MW2 (adjusted to 1 × 10^6 CFU/ml) in TSB medium (supplemented with 0.2% glucose)
370 from overnight grown cultures. We added 100 µl of bacterial culture to flat-bottomed 96-well
371 polystyrene microtiter plates (Cat no. 3595, Corning, NY, USA). We then incubated the plates at
372 37°C for 24 hours in static conditions to allow biofilm formation. After incubation, we carefully
373 pipetted out the TSB medium and washed the wells with PBS (Gibco, MD, USA) to remove
374 loosely attached planktonic cells. We treated the established biofilms in each well with 10 µl of
375 serially diluted 10× peptide solution, followed by the addition of 90 μl TSB medium
376 (supplemented with 0.2% glucose). We incubated the plates for another 24 h at 37°C before
377 processing biomass and live-cell contents. We calculated the concentration of peptide that disrupts
378 50% of established biofilms (MBEC50).
380 Fluorescence microscopy of CIT-8-treated S. aureus MW2 established biofilms
381 We prepared exponential phase cultures of S. aureus MW2 and adjusted the bacterial count
382 to 1 × 10^6 CFU/ml in fresh TSB medium. To establish biofilms, we added 200 µl of the bacterial
383 culture to the chambers of Millicell EZ Slides (Millipore Sigma, MA, USA) and maintained them
384 at 37°C for 24 hours under static conditions (8). After incubation, we carefully removed the TSB […]
We calculated the percent hemolysis, […]

S. aureus MW2 = experiment: Cryo-electron microscopy; assay type: cell-based, Staphylococcus aureus; details: 80 μg/mL, 60 minutes
Description: 506 containing 50 µl BacTiter-Glo reagent (Promega, WI, USA) and measured plate luminescence as
507 previously described (18) after 5 min of incubation at room temperature.
509 Cryo-electron microscopy (cryo-EM)
510 We statically treated 10 ml of an exponential-phase S. aureus MW2 culture (OD600 = 0.4,
For imaging, we vitrified the
512 bacteria cells using Leica EM-GP2® plunger (Leica Microsystems, Wetzlar, Germany) on R2×2
513 Quantifoil® carbon holey film (Micro Tools GmbH, Jena, Germany) grids as previously described
514 (19). Briefly, we applied a 4 µl of bacterial suspensions to the grids pre-cleaned in a Gatan Solarus
515 950 plasma cleaner (Gatan, Inc, USA), blotted with filter paper, and plunged into liquid ethane.
516 We stored the frozen grids under liquid nitrogen until used for microscopy. We then transferred
517 the grids into a JEM 2200FS electron microscope (JEOL Ltd, Akishima, Japan) operating at 200
518 keV and equipped with a field emission gun, in-column electron energy filter (omega type) and a
519 DE20 direct electron detector camera (Direct Electron Inc., CA, USA). We used a 20 eV energy
520 slit width during data acquisition. Total electron dose/image was ~15 electrons/Å2. Image pixel
521 size was 3.66 Å on the specimen scale.
523 Scanning electron microscopy (SEM)
524 We followed an established protocol with minor modification to perform SEM imaging of […]

H-GLFKVIKKLLKVI-NH2 [CIT-8]
Live/dead staining of established biofilm [1]: high proportion of dead cells | Cryo-EM appearance of treated cells (S. aureus MW2): membrane disruption and perturbation
